Assay results from patent US20050124618A1, “Methods of modulating angiogenesis and cancer cell proliferation” (priority 2003, published 2005).
“Also recorded” adds a separate entry of the source.

How the values were obtained:
HUVECs = assay: Proliferation of normal HUVECs (comparison with U251); type: cell-based, human; conditions: 10 μM HET0016, 48 hrs; DDMS concentration not given
Description: (§1) Mean values±SD from three separate experiments, each performed in triplicate, are presented. *** indicates p<0.001 from the respective control values.
(§2) Cell Proliferation Assays: Proliferation studies were performed with cultures plated at a density that ensured exponential growth for at least 5 days. Growth medium was generally replaced by serum-free medium 24 hr after plating. Cells were treated with various concentrations of a given compounds for 24 or 48 hr as described in the Methods. […] Organic solvent never exceeded 0.1% of total culture volume. Cells were harvested by exposure to 0.05% trypsin/EDTA and counted using a hemocytometer.

[1] = tested on: primary human keratinocytes; assay: Proliferation of primary human keratinocytes (comparison with U251); type: cell-based; conditions: 10 μM HET0016, 48 hrs; DDMS concentration not given
Description: as §1, §2

SAPK/JNK [2] = assay: Western blot of phospho-SAPK/JNK in U251 cells; type: cell-based, human; conditions: 10 μM HET0016, 24 and 48 hr
Description: They were then pelleted by centrifugation at 1,000 g for 5 min at 4° C. Cells were lysed by adding RIPA buffer [20 mM HEPES (pH 7.4), 100 mM NaCl, 1% Nonidet P-40, 0.1% SDS, 1% deoxycholic acid, 10% glycerol, 1 mM EDTA, 1 mM NaVO3, 50 mM NaF, and Protease Inhibitors Set 1 (Calbiochem, La Jolla, Calif.)]. Plates were then scraped and cells collected in a 1.5-ml centrifuge tube, followed by incubation on ice for 30 min. Homogenates of the cell suspension were centrifuged for 10 min at 14,000 g and 4° C.; the pellets were discarded and protein concentrations in the supernatant determined by bicinchoninic acid (BCA) protein assay.
Typically, 20 μg of protein was separated on a 14% Tris-glycine gel (Invitrogen) and electroblotted on a PVDF membrane (Biotrace, Bothell, Wash.). Membranes were blocked for 1 h at room temperature with blocking buffer [0.2% I-Block reagent (Tropix, Bedford, Mass.), 0.1% Tween-20 in […]] before incubation with primary antibodies in blocking buffer (overnight at 4° C.). […] Both phospho-tyrosine (Y102) and phospho-serine/threonine-Pro MPM2 were detected using a 1:2000 dilution of the corresponding antibodies, whereas phospho-p44/p42MAPK and phospho-SAPK/JNK were detected using 1:1000 antibody dilutions. […]

SAPK/JNK [3] = assay: Western blot of phospho-SAPK/JNK in 9L cells; type: cell-based, rat; conditions: 10 μM HET0016; 4 hr, 24 hr, 48 hr
Description: They were then pelleted by centrifugation at 1,000 g for 5 min at 4° C. The cells were lysed by adding RIPA buffer [20 mM HEPES (pH 7.4), 100 mM NaCl, 1% Nonidet P-40, 0.1% SDS, 1% deoxycholic acid, 10% glycerol, 1 mM EDTA, 1 mM NaVO3, 50 mM NaF, and protease inhibitors Set 1 (Calbiochem, La Jolla, Calif.)]. The plates were then scraped and the cells were collected in a 1.5-ml centrifuge tube, followed by incubation on ice for 30 min. The cell homogenates were centrifuged for 10 min at 14,000 g and 4° C.; the pellets were discarded and the protein concentrations in the supernatant determined by bicinchoninic acid (BCA) protein assay.
Typically, 20 μg of protein obtained from the cell homogenates was separated on a 14% Tris-glycine gel (Invitrogen) and transferred to a PVDF membrane (Biotrace, Bothell, Wash.). The membranes were blocked for 1 hr at room temperature with blocking buffer [0.2% I-Block reagent (Tropix, Bedford, Mass.), 0.1% Tween-20 in 1×PBS] and then incubated with the primary antibodies in blocking buffer overnight at 4° C. Phospho-p42/p44 MAPK (T202/Y204)(20G11), and phospho-SAPK/JNK (T183/Y185) (98F2) monoclonal antibodies were purchased from Upstate (Waltham, Mass.). […] Both phospho-p44/p42MAPK and phospho-SAPK/JNK were detected using 1:1000 antibody dilutions. […]

9L gliosarcoma tumors = assay: Ki-67 immunohistochemistry of 9L tumor sections; type: in vivo, rat; conditions: chronic treatment with HET0016
Description: Assessment of tumor volume: The formalin fixed brains were placed in Coronal rat brain matrix, and sliced into 3-mm blocks. These blocks were then embedded in paraffin and […] thick sections were prepared. Sections prepared for H&E staining were placed onto uncoated slides. Sections for immunohistochemistry were placed onto positively charged super frosted slides. The serial sections were either stained with H&E for to assess the size of the tumor or immunohistochemically process for Ki-67 antigen to assess for the degree of proliferation.
The sections prepared for immunohistochemistry were deparaffinized by boiling the sections in a citric buffer (pH 6.0) for 10 minutes on a hot plate. The sections were cooled to room temperature, placed in a blocking buffer [2% normal serum, 1% BSA in PBS] for 1 hr, rinsed twice in a wash buffer [0.05 Tween-20 in PBS], blocked with hydrogen peroxide for 10 min and rinsed in wash buffer. The sections were then incubated for 30 min with rabbit polyclonal anti-ki67 antibody (Abcam Inc., Cambridge, Mass.; 1:200 dilution in 1.0% BSA in PBS). The sections were rinsed in wash buffer, incubated with biotinylated Goat anti-rabbit IgG (Vector Laboratories, Inc., Burlingame, Calif.; 1:500 in PBS) for 30 min, and rewashed. […]

Q: Which results are given for CCCCc1ccc(N=CNO)c(C)c1 [HET0016, N-hydroxy-N′-(4-butyl-2 methylphenyl) formamidine]?
A: effect on basal growth or proliferation of normal HUVECs (HUVECs): Neither DDMS or HET0016 had any effect; also recorded: had no effect on the basal growth or proliferation; also recorded: had no effect on the proliferation; effect on basal growth or proliferation of primary human keratinocytes [1]: Neither DDMS or HET0016 had any effect; also recorded: had no effect on the basal growth or proliferation; also recorded: had no effect on the proliferation; phosphorylation of SAPK/JNK (SAPK/JNK [2]): specifically inhibited phosphorylation; phosphorylation of SAPK/JNK (SAPK/JNK [3]): decreases the phosphorylation; also recorded: significantly reduced the phosphorylation; also recorded: inhibition appears to peak at 48 hr; number of mitotic (Ki67-positive) cells in the 9L tumor (9L gliosarcoma tumors): reduction in mitosis; also recorded: greatly reduced the number of mitotic cells
